Patent US20090186915A1, “Compositions and methods for treatment of glioblastoma, gliosarcoma, NSCLC, and head and neck cancer” (Unibioscreen S. A., priority 2006, published 2009)
Read-outs that look alike come from different tables or passages of the source.

Legend:
Hs683 = assay: MTT colorimetric assay, Hs683 cells; type: cell-based; settings: Homo sapiens, Hs 683, 72 h, 3 days of culturing, mean of six determinations, read-out: IC50 (μM) In Vitro Growth Inhibition
Experimental: (§1) The overall growth of human cancer cell lines was determined by means of the calorimetric MTT (3-[4,5-dimethylthiazol-2-yl]-diphenyl tetrazolium bromide; Sigma) assay, as detailed previously.

[1] = test system: nine human cancer cell lines; assay: MTT colorimetric assay, mean of nine cell lines; type: cell-based; settings: mean over nine human cancer cell lines, read-out: mean antiproliferative activity IC50
Experimental: as §1
UNBS3157 and UNBS5162 display weak antiproliferative activity in vitro.

[2] = test system: human PC-3 orthotopic xenografts
Experimental: Orthotopic xenografts were obtained by injecting 2.5×10^6 human PC-3 or DU-145 cells into the prostate of 6-week-old male nu/nu mice (n=9 animals per treatment group). All grafts were performed under anesthesia [saline/Rompun (Bayer, Leverkusen, Germany)/Imalgene (Merial, Lyons, France); 5:1:1 by volume]. The end point in these orthotopic experiments was the survival period of the tumor-bearing mice after the administration of UNBS3157, UNBS5162, or reference anticancer agents (taxol, mitoxantrone, and amonafide). However, for ethical reasons, animals were killed when 20% of body weight had been lost compared to that determined at the time of tumor grafting. All animals were weighed three times a week. […] In the case of UNBS5162 experiments in the PC-3 model, after the sacrifice of animals, tumors were removed from both drug-treated [10 mg/kg, intravenous (i.v.)] and vehicle-treated mice, fixed in buffered formalin, embedded in paraffin, and 5-μm-thick sections taken. These histologic slides were then stained with hematoxylin and eosin for blood vessel counts.

DU-145 = assay: Lysosomal membrane permeabilization (LMP), DU-145; type: cell-based, human; settings: 72 hours, 10 μM
Description: It is well known that lysosomes control cell death at several levels. In response to endogenous or exogenous stress (including chemotherapy), lysosomal membrane permeabilization (LMP) can occur, leading to the release of catabolic hydrolases that can mediate caspase-dependent apoptosis, caspase-independent apoptosis-like cell death or even necrosis following high levels of LMP.

[3] = test system: orthotopic Hs683 xenograft; assay: Orthotopic Hs683 xenograft nude mice model, survival; type: in vivo; settings: Temodal p.o. 40 mg/kg three times a week for three weeks followed by UNBS5162 i.v. 10 mg/kg once a week for three weeks
Experimental: In order to evaluate UNBS5162-mediated in vivo anti-tumor effect in glioma models, an orthotopis Hs683 model was used that was previously evidenced as expressing pro-angiogenic chemokines at the most high level. […] In line with this, an experiment combining Temodal to UNBS5162 was performed.
Thus, combining pro-autophagic therapy with an inhibitor of pro-angiogenic chemokines might represent a new manner to treat glioblastoma, at least some types that express high levels of pro-angiogenic chemokines.

CFC-GEMM = assay: HALO hematotoxicity assay, mouse CFC-GEMM; type: cell-based; settings: 5 days culture, iATP
Experimental: Investigation of the hematotoxic potential of UNBS5162 was undertaken by HemoGenix (Colorado Springs, Colo.). The effects of UNBS5162 on stem and progenitor cell populations from murine and human bone marrow were assessed using HALO (Hematopoietic/Hematotoxicity Assay through Luminescence Output) technology. Stem and hematopoietic progenitor cell populations were isolated from mouse and human bone marrow samples, plated at a concentration of 1.0×10^4 cells/well and cultured for 5 and 7 days, respectively, in the presence of growth factors and increasing concentrations of UNBS5162 ranging from 0.5 nM to 50 μM. The proliferative or growth potential of cell populations was determined from intracellular ATP (iATP) concentrations and a luciferin/luciferase bioluminescence signal detection system. All samples were assayed in eight replicates. The results are presented as estimated inhibitory concentration (IC) values.

MXT-HI mammary tumor = assay: Syngeneic MXT-HI mammary tumor s.c., with or without irradiation; settings: for Mean tumor size: UNBS5162 i.v. (5i × 3w) 10 mg/kg, alone or with 10 gray; for Number of mice dead or sacrificed: 11 mice per group
Experimental: The MXT-HI models used in our laboratory involve subcutaneously injecting MXT-HI tumor fragments into the flanks of B6D2F1 mice.
After the adaptation period, animals were inoculated subcutaneously with MXT-HI tumor. Briefly, “bank animals” were sacrificed and MXT-HI tumors were isolated from the animals, kept in saline solution and minced into 1 mm^3 pieces. These pieces (one/animal) were randomly s.c. inoculated into the right flanks of mice by means of a trocar.
UNBS5162 was dosed intravenously in accordance with UNBS procedure #002. The dosing volume was fixed at 200 μL/mouse. Group 1: Control (lactic acid vehicle) (5i/week×3 weeks) Group 2: UNBS5162 (10 mg/kg, 5i/week×3 weeks) Group 3: Irradiated (10 gray, 1 irradiation) Group 4: Irradiated (10 gray, 1 irradiation)+UNBS5162 (10 mg/kg, 5i/week×3 weeks) For group 4, the first administration of UNBS5162 was performed at the morning of the day of irradiation (5 Dec. 2007).
Briefly, animals were anaesthetized, using a syringe, with 150 μl of Rompun/Ketalar mixture (1 part Rompun/1 part Ketalar/4.5 parts saline) injected intraperitoneally. After approximately 5 minutes and after verification that animals were completely asleep, an irradiation simulation was performed first to focalise irradiation in the tumor centre and to avoid to irradiate healthy tissue. Simulation was performed individually on each animal to adapt irradiation to tumor size. In a second time, the tumor was irradiated with a dose of 10 gray (5 MV photons from a linear accelerator at a source skin distance of 1 m).
For technical reasons, irradiation was not performed the same day for all animals. Tumor irradiation was performed on day 14 post-graft for group 4 (irradiated+UNBS5162) and on day 16 post-graft for group 3 (irradiated alone).
Tumor growths were recorded 3 times weekly on Monday, Wednesday and Friday.
Statistical comparisons between the control group and the treated groups were performed with the non-parametric Mann-Whitney U-test. Survival analysis was done either by calculating the % T/C-value or with Kaplan-Meier analysis and Log-rank statistics. All statistical analyses were carried out using Statistica software (Statsoft, Tulsa, Okla.). The cut-off level for statistical significance was set at a p-value of p<0.05.
The T/C-values were calculated by dividing the day of death or sacrifice of the median mouse in a treated group T by the day of death or sacrifice of the median mouse in the control group C, the latter said to be 100%.

CCL2, CXCL-I and CXCL-8 = assay: ELISA of CCL2, CXCL1 and CXCL8, Hs683 cells; type: cell-based, human; settings: 1 μM single or 5×1
[4] = test system: glioma Hs683 and U373 cells; assay: Cell cycle kinetics by flow cytometry, glioma cells; type: cell-based, human
Experimental: The cell cycle kinetics of glioma Hs683 (ATCC code HTB-138) and U373 (ATCC code HTB-17) cells left untreated or incubated with UNBS5162 as indicated were determined by flow cytometry analysis of propidium iodide (PI) nuclear staining, using previously detailed methodology (Mijatovic et al. Neoplasia 2006, 2008). Each sample was evaluated in triplicate. Flow cytometry was undertaken using an Epics XL.MCL flow cytometer and the F ACScan/CellQuest software system (Becton Dickinson, Miami, Fla., USA).

[5] = UNBS5162 10 mg/kg i.v. 5i×3w, alone or with 1×10 gray

Q: With CN(C)CCN1C(=O)c2cccc3cc(NC(N)=O)cc(c23)C1=O [UNBS5162, N-{2-[2-(dimethylamino)ethyl]-1,3-dioxo-2,3-dihydro-1H-benzo[de]isoquinolin-5-yl}urea] as the compound, how does the IC50 (Hs683) read?
A: 8.5 µM

Q: What about the IC50 [1] of the same compound?
A: 17.9 µM

Q: What about the “angiogenesis in tumors (histopathology, blood vessel counts)” value ([2]; PC-3 orthotopic model, 10 mg/kg i.v.) of the same compound?
A: anti-angiogenic properties in vivo

Q: What about the “therapeutic benefit (survival)” value ([2]; PC-3 orthotopic model, 10 mg/kg i.v. three times a week for 6 consecutive weeks) of the same compound?
A: therapeutic benefits that were similar to repeat i.v. administration (once a week for 6 consecutive weeks) of 20-mg/kg taxol

Q: And the “therapeutic benefit (survival) in combination” value ([2]; PC-3 orthotopic model, UNBS5162 10 mg/kg i.v. at the same time as taxol 20 mg/kg i.v.)?
A: significantly (P<0.01) increased the therapeutic benefit contributed by taxol alone

Q: What about the “therapeutic benefit (survival) in combination” value ([2]; PC-3 orthotopic model, UNBS5162 before or after taxol) of the same compound?
A: did not modify the therapeutic benefit contributed by taxol alone

Q: What about the “toxicity of combined treatment (mouse weight, behavior)” value ([2]; mouse, in vivo) of the same compound?
A: did not contribute higher toxicity

Q: And the “lysosomal membrane permeabilization (LMP)” value (DU-145)?
A: a marked drug-induced LMP process appeared

Q: What about the “survival period of tumor bearing mice” value [3] of the same compound?
A: significantly prolonged the survival period of tumor bearing mice

Q: What about the IC50 (CFC-GEMM; 120 h) of the same compound?
A: 6.22 µM

Q: What about the IC90 (CFC-GEMM; 120 h) of the same compound?
A: 8.96 µM

Q: What about the IC75 (CFC-GEMM) of the same compound?
A: 7.48 µM

Q: What about the Mean tumor size (MXT-HI mammary tumor; Day 14) of the same compound?
A: 178.52 mm^2

Q: And the Mean tumor size (MXT-HI mammary tumor; Day 16)?
A: 250.08 mm^2

Q: And the Mean tumor size (MXT-HI mammary tumor; Day 19)?
A: 414.11 mm^2

Q: And the Mean tumor size (MXT-HI mammary tumor; Day 21)?
A: 423.71 mm^2

Q: What about the Mean tumor size (MXT-HI mammary tumor; Day 23) of the same compound?
A: 481.56 mm^2

Q: What about the Mean tumor size (MXT-HI mammary tumor; Day 26) of the same compound?
A: 619.21 mm^2

Q: And the “effect on tumor area” value (MXT-HI mammary tumor; [5])?
A: no relevant effects

Q: What about the “survival of MXT-HI-bearing mice” value (MXT-HI mammary tumor; [5]) of the same compound?
A: No prolongation of survival

Q: And the “Number of mice dead or sacrificed” value (MXT-HI mammary tumor; day 19 post graft)?
A: 1

Q: And the “Number of mice dead or sacrificed” value (MXT-HI mammary tumor; day 21 post graft)?
A: 2

Q: And the “Number of mice dead or sacrificed” value (MXT-HI mammary tumor; day 23 post graft)?
A: 3

Q: What about the “Number of mice dead or sacrificed” value (MXT-HI mammary tumor; day 26 post graft) of the same compound?
A: 4

Q: What about the “Number of mice dead or sacrificed” value (MXT-HI mammary tumor; day 28 post graft) of the same compound?
A: 1

Q: And the “CCL2, CXCL-I and CXCL-8 production (ELISA)” value (CCL2, CXCL-I and CXCL-8)?
A: a marked UNBS5162-mediated decrease in CCL2, CXCL-I and CXCL-8 production

Q: What about the “cell cycle kinetics, G2 block” value ([4]; Hs683 and U373, 10 μM for 72 h) of the same compound?
A: markedly blocked both Hs683 and U373 cells in their G2 cell cycle phase

Q: And the cell cycle kinetics ([4]; glioma cells, 1 μM)?
A: did not significantly modify glioma cell cycle kinetics

Q: What about the cell cycle kinetics ([4]; glioma cells, chronic 1 μM for five days) of the same compound?
A: did not notably modify glioma cell cycle kinetics

Q: What about the “cell death on chronic treatment” value ([4]; glioma cells, chronic 10 μM for five days) of the same compound?
A: induced the death of all assayed cells before the end of experiment
